Experimental data reported in patent publication US20220289698A1, “INHIBITORS OF HUMAN ATGL” (Karl-Franzens-Universität Graz, priority 2019, published 2022).
Where two headings read alike, the source gives them in different places.

How the values were obtained:
[1] = target: T1, murine ATGL (Mus musculus, UniProt Q8BJ56); experiment: TG hydrolase activity, Expi lysates expressing mouse ATGL + CGI-58, radiolabelled triolein; format: biochemical
T1 construct: made in house; host or cells: Expi cells (lysate)
T1 sequence (Q8BJ56 1-486): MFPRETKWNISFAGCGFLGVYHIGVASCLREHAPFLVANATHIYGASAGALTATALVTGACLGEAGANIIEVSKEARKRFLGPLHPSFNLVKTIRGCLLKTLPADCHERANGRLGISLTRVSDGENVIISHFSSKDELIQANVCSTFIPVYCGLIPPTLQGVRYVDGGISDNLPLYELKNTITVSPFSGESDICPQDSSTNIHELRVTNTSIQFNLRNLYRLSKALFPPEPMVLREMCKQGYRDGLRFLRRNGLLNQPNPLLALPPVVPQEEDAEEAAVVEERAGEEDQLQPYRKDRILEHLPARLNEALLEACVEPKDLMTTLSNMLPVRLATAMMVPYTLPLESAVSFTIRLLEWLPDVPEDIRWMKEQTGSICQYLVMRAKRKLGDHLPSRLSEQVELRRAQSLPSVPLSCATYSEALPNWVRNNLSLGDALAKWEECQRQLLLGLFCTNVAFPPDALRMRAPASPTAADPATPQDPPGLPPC
Outline: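 Lysates of Expi cells overexpressing mouse ATGL, with added recombinant CGI-58, were incubated with inhibitor at 50 μM. Substrate was emulsified radiolabelled triolein with PC/PI in 100 mM potassium phosphate pH 7.0 and 5% FA-free BSA, 1 h at 37° C. Released FA were extracted and counted by scintillation; triplicates, DMSO control.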

[2] = target: T2, human ATGL (Homo sapiens, UniProt Q96AD5); experiment: TG hydrolase activity, Expi cell lysates expressing human ATGL + CGI-58, radiolabelled triolein; format: biochemical
T2 construct: made in house; host or cells: Expi cells (lysate, not purified)
T2 sequence (Q96AD5 1-504): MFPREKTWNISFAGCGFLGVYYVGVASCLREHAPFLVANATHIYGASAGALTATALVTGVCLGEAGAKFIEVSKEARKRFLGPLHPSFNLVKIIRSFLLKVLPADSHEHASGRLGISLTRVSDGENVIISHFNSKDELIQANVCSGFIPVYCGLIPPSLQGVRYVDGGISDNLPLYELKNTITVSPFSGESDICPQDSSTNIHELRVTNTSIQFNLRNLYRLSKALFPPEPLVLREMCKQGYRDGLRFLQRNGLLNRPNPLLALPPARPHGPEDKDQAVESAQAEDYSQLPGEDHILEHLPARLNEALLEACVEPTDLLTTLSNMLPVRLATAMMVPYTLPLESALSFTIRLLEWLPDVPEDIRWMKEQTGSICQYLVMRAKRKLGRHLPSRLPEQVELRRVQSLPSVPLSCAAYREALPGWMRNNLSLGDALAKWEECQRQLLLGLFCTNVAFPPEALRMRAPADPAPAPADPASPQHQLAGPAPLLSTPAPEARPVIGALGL
Outline: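 Lysates of Expi cells expressing ATGL, supplemented with purified CGI-58 and inhibitor in DMSO, incubated 1 h at 37 °C with emulsified radiolabelled triolein (330 μM) in potassium phosphate pH 7.0 with 5% FA-free BSA. Released FA counted by liquid scintillation after phase extraction; IC50 versus DMSO control, duplicates.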

[3] = 50 μM, Example 238, read-out: % Inhibition of murine ATGL at 50 μM
[4] = Example 238, read-out: Inhibition of human ATGL IC50
[5] = 50 μM compound, Example 237, read-out: Inhibition of murine ATGL at 50 μM − mean [%]
[6] = Example 237, read-out: Inhibition of human ATGL − IC50

Row | SMILES | melting point | inhibition at 50 µM [1, 3] | IC50 [2, 4] | inhibition at 50 µM [1, 5] | IC50 [2, 6]
1 | CCOc1ccc(-c2cc(OC)cc(C(=O)OC)n2)cc1 [Example 26] | 94 to 103 °C |  |  | 23.1% | 12 µM
2 | COCCOCCOc1ccc(-c2cccc(C(=O)OC(C)C)n2)cc1 [Example 15] | 45 to 46 °C |  |  | 0% | 6 µM
3 | COCc1ccc(-c2cccc(C(=O)OC(C)C)n2)cc1 [Example 19] | 55 to 58 °C |  |  | 3.9% | 3 µM
4 | CCOc1ccc(-c2cccc(C(=O)OC(C)CC)n2)cc1 (stereo not shown) [Example 30] | 49 to 51 °C |  |  | 0% | 8 µM
5 | CCCCOC(=O)c1cccc(-c2ccc(OCC)cc2)n1 [Example 2] | 78 to 81 °C |  |  | 5.9% | 20 µM
6 | CCOCCOc1ccc(-c2cccc(C(=O)OC(C)C)n2)cc1 [Example 16] | 46 to 47 °C |  |  | 18.1% | 3 µM
7 | CCCOc1ccc(-c2cccc(C(=O)OC(C)C)n2)cc1 [Example 27] | 90 to 93 °C |  |  | 0% | 3 µM
8 | COCCOc1ccc(-c2cccc(C(=O)OC(C)C)n2)cc1 [Example 11] | 75 to 77 °C |  |  | 1.8% | 5 µM
9 | CCOC(=O)c1cc(C)cc(-c2ccc(OCC)cc2)n1 [Example 14] | 90 to 91 °C |  |  | 6.1% | 10 µM
10 | CCOc1ccc(-c2cccc(C(=O)OC3CC3)n2)cc1 [Example 21] | 114 to 115 °C |  |  | 0% | 5 µM
11 | CC(=O)Oc1ccc(-c2cccc(C(=O)OC(C)C)n2)cc1 [Example 23] | 71 to 75 °C |  |  | 16% | 15 µM
12 | CCCOC(=O)c1cccc(-c2ccc(OCC)cc2)n1 [Example 31] | 80 to 84 °C |  |  | 6% | 12 µM
13 | CCS(=O)(=O)c1ccc(-c2cccc(C(=O)OC(C)C)n2)cc1 [Example 18] | 126 to 129 °C |  |  | 0% | 10 µM
14 | CCOC(=O)c1cccc(-c2ccc(OCCOC)cc2)n1 [Example 8] | 89 to 94 °C |  |  | 9.1% | 10 µM
15 | CC(C)OC(=O)c1cccc(-c2ccc(OC3CCCCO3)cc2)n1 (stereo not shown) [Example 36] | 105 to 107 °C |  |  | 9.6% | 8 µM
16 | CCOC(=O)c1ccc(-c2cccc(C(=O)OC(C)C)n2)cc1 [Example 29] | 56 to 62 °C |  |  | 0% | 6 µM
17 | C=CCOC(=O)c1cccc(-c2ccc(OCC)cc2)n1 [Example 32] | 65 to 70 °C |  |  | 18.6% | 6 µM
18 | CCOc1ccc(-c2cccc(C(=O)OC(C)(C)C)n2)cc1 [Example 28] | 69 to 73 °C |  |  | 0% | 12 µM
19 | CC(C)OC(=O)c1cccc(-c2ccc(CO)cc2)n1 [Example 12] | 129 to 131 °C |  |  | 0% | 25 µM

Results, then the compound that gave them:

Row | melting point | inhibition at 50 µM [1, 3] | IC50 [2, 4] | inhibition at 50 µM [1, 5] | IC50 [2, 6] | SMILES
20 | 90 to 93 °C | 75% | 30 µM |  |  | CCOc1ccc(-c2cccc(C(=O)OCc3ccsc3)n2)cc1 [Example 197, Thiophen-3-ylmethyl 6-(4-ethoxyphenyl)picolinate]
21 | 172 to 176 °C |  |  | 0% | 10 µM | CC(C)OC(=O)c1cccc(-c2ccc(-c3nc4ccccc4n3-c3ccccc3)cc2)n1 [Example 84]
22 | 53 to 55 °C |  |  | 0.1% | 2.5 µM | CCCCCCOc1ccc(-c2cc(OC)cc(C(=O)OC(C)C)n2)cc1 [Example 83]
23 | 94 to 95 °C |  |  | 0% | 3 µM | CC(C)OC(=O)c1cccc(-c2ccc(Cl)cc2)n1 [Example 87]
24 | 82 to 84 °C |  |  | 1.4% | 3 µM | CCc1ccc(-c2cccc(C(=O)OC(C)C)n2)cc1 [Example 55]
25 | 112 to 115 °C |  |  | 10.2% | 15 µM | CCOC(=O)c1csc(-c2ccc(OCc3ccccc3)cc2)n1 [Example 187, Ethyl 2-(4-(benzyloxy)phenyl)thiazole-4-carboxylate]
26 | 90 to 92 °C |  |  | 0% | 3 µM | C#CC(C)OC(=O)c1cccc(-c2ccc(CCC)cc2)n1 (stereo not shown) [Example 70]
27 | 66 to 71 °C |  |  | 5.1% | 10 µM | CC(C)OC(=O)c1cccc(/C=C/c2ccccc2)n1 [Example 76]
28 | 51 to 55 °C |  |  | 0% | 2 µM | CCCCc1ccc(-c2cccc(C(=O)OC(C)C)n2)cc1 [Example 94]
29 | 118 to 121 °C |  |  |  | 6 µM | COc1cc(C(=O)OC(C)C)nc(-c2ccc(-c3cccnc3)cc2)c1 [Example 65]
30 | 108 to 109 °C |  |  | 0% | 25 µM | CCOC(=O)c1cccc(-c2ccc(C#N)cc2)n1 [Example 88]
31 | 70 to 75 °C |  |  | 5.7% | 5 µM | CC(C)OC(=O)c1cccc(-c2ccc(OCC(F)(F)F)cc2)n1 [Example 38]
32 | 68 to 69 °C |  |  | 0% | 25 µM | CCCCCCOc1ccc(-c2cccc(C(=O)OC)n2)cc1 [Example 89]
33 | 79 to 81 °C |  |  |  | 3 µM | CCCOc1ccc(-c2cc(OC)cc(C(=O)OC(C)C)n2)cc1 [Example 59]
34 | 116 to 118 °C |  | 10 µM |  |  | COc1cc(C(=O)OC2CCC2)nc(-c2ccc(OC(C)C)cc2)c1 [Example 203, Cyclobutyl 6-(4-isopropoxyphenyl)-4-methoxypicolinate]
35 | 63 to 65 °C |  |  | 0% | 3 µM | CCCCCOc1ccc(-c2cccc(C(=O)OC(C)C)n2)cc1 [Example 85]
36 | 110 °C |  |  |  | 3 µM | CCOc1ccc(-c2cccc(C(=O)OC/C=C/c3ccccc3)n2)cc1 [Example 73]
37 | 68 to 69 °C |  |  |  | 10 µM | CCCc1ccc(-c2cccc(C(=O)OCC)n2)cc1 [Example 66]
38 | 88 to 89 °C |  |  |  | 2 µM | CC(C)OC(=O)c1cccc(-c2ccc(CCc3ccccc3)cc2)n1 [Example 67]
39 | 97 to 101 °C | 82% | 20 µM |  |  | CCOc1ccc(-c2cccc(C(=O)OCc3ccoc3)n2)cc1 [Example 198, Furan-3-ylmethyl 6-(4-ethoxyphenyl)picolinate]
40 | 76 to 78 °C |  |  | 31.8% | 15 µM | C#CCOC(=O)c1cccc(-c2ccc(OCC)cc2)n1 [Example 51]
41 | 103 to 107 °C |  |  |  | 10 µM | CC(C)COc1ccc(-c2cccc(C(=O)OC(C)C)n2)cc1 [Example 96]
42 | 43 to 47 °C |  |  | 22.8% | 10 µM | CC(C)OC(=O)c1cccc(-c2ccc(OC(F)(F)F)cc2)n1 [Example 37]
43 | 55 to 56 °C |  |  | 0% | 7 µM | COc1cc(C(=O)OC(C)C)nc(-c2ccc(C(F)(F)F)cc2)c1 [Example 58]
44 | 59 to 61 °C |  | 5 µM |  |  | COc1ccc(-c2cc(OC)cc(C(=O)OC(C)C)n2)cc1 [Example 206, Isopropyl 4-methoxy-6-(4-methoxyphenyl)picolinate]
